The values that follow come from ChEMBL document CHEMBL1126440, “Design and synthesis of azabicyclic muscarinic agonists incorporating an oxime ether functionality” (Bioorg Med Chem Lett, 1992).

Experiment [1] addresses Muscarinic acetylcholine receptor (Rattus norvegicus) (UniProt P08482+P08483+P08485+P08911+P10980). In words: Relative affinity of oxotremorine-M (OXO-M) and [3H]quinuclidinyl benzilate (QNB) for muscarinic receptors. Type of experiment: protein assay.
Experiment [2] has as its target Muscarinic acetylcholine receptor. Nature of the experiment: Displacement of [3H]quinuclidinyl benzilate(QNB) binding from muscarinic receptors of rat cerebral cortex; 2600-4400. The class given is tissue-based. (In a radioligand displacement assay an active substance lowers the binding of a labelled ligand.)
For experiment [3] the target is unchanged. Nature of the experiment: Displacement of [3H]- oxotremorine-M (OXO-M) binding from muscarinic receptors of rat cerebral cortex; 44-48. The class given is tissue-based.
Experiment [4] shares this target. In words: Displacement of [3H]quinuclidinyl benzilate(QNB) binding from muscarinic receptors of rat cerebral cortex; 12500-16500. The class given is tissue-based.
The target is the same in experiment [5]. Nature of the experiment: Displacement of [3H]- oxotremorine-M (OXO-M) binding from muscarinic receptors of rat cerebral cortex; 50-65. Type of experiment: tissue-based.
For experiment [6] the target is unchanged. Nature of the experiment: Displacement of [3H]- oxotremorine-M (OXO-M) binding from muscarinic receptors of rat cerebral cortex; 44-170. The class given is tissue-based.
Experiment [7] has the same target. In words: Displacement of [3H]quinuclidinyl benzilate(QNB) binding from muscarinic receptors of rat cerebral cortex; 4800-6300. Type of experiment: tissue-based.
Experiment [8] has as its system Rattus norvegicus. Nature of the experiment: Effective dose required to cause 50% fall in mean blood pressure (BP) […] of urethane anesthetized rats after iv administration of compound. The class given is functional.
A short description of experiment [9]: Ratio of change in mean blood pressure (BP) to that of mean power spectrum of EEG. Type of experiment: functional.
Experiment [10] has as its system Rattus norvegicus. Nature of the experiment: Dose required to produce a change in the mean power spectrum of EEG equivalent to that of a standard dose (0.32 mg/Kg i.v.) of arecoline after iv administration of compound. Type of experiment: functional.
Experiment [11] concerns the target Muscarinic acetylcholine receptor. Nature of the experiment: Displacement of [3H]quinuclidinyl benzilate(QNB) binding from muscarinic receptors of rat cerebral cortex; 1400-2700. The class given is tissue-based.
Experiment [12] has the same target. Nature of the experiment: Displacement of [3H]- oxotremorine-M (OXO-M) binding from muscarinic receptors of rat cerebral cortex; 12-62. Type of experiment: tissue-based.
The target is the same in experiment [13]. In words: Displacement of [3H]quinuclidinyl benzilate(QNB) binding from muscarinic receptors of rat cerebral cortex; 2700-3000. Type of experiment: tissue-based.
For experiment [14] the target is unchanged. Nature of the experiment: Displacement of [3H]- oxotremorine-M (OXO-M) binding from muscarinic receptors of rat cerebral cortex; 230-335. The class given is tissue-based.
For experiment [15] the target is unchanged. In words: Displacement of [3H]- oxotremorine-M (OXO-M) binding from muscarinic receptors of rat cerebral cortex; 90-155. The class given is tissue-based.
Experiment [16] shares this target. In words: Displacement of [3H]quinuclidinyl benzilate(QNB) binding from muscarinic receptors of rat cerebral cortex; 36000-40000. The class given is tissue-based.
Experiment [17] shares this target. In words: Displacement of [3H]- oxotremorine-M (OXO-M) binding from muscarinic receptors of rat cerebral cortex; 205-310. The class given is tissue-based.
The target is the same in experiment [18]. In words: Displacement of [3H]quinuclidinyl benzilate(QNB) binding from muscarinic receptors of rat cerebral cortex. Type of experiment: tissue-based.
The target is the same in experiment [19]. In words: Displacement of [3H]quinuclidinyl benzilate(QNB) binding from muscarinic receptors of rat cerebral cortex; 2500-5600. Type of experiment: tissue-based.
The target is the same in experiment [20]. In words: Displacement of [3H]- oxotremorine-M (OXO-M) binding from muscarinic receptors of rat cerebral cortex. Type of experiment: tissue-based.
The target is the same in experiment [21]. In words: Displacement of [3H]quinuclidinyl benzilate(QNB) binding from muscarinic receptors of rat cerebral cortex; 3400-8000. Type of experiment: tissue-based.
Experiment [22] shares this target. Nature of the experiment: Displacement of [3H]- oxotremorine-M (OXO-M) binding from muscarinic receptors of rat cerebral cortex; 155-265. The class given is tissue-based.
Experiment [23] shares this target. In words: Displacement of [3H]quinuclidinyl benzilate(QNB) binding from muscarinic receptors of rat cerebral cortex; 1400-2900. Type of experiment: tissue-based.
Experiment [24] has the same target. Nature of the experiment: Displacement of [3H]- oxotremorine-M (OXO-M) binding from muscarinic receptors of rat cerebral cortex; 66-83. The class given is tissue-based.
Experiment [25] shares this target. Nature of the experiment: Displacement of [3H]quinuclidinyl benzilate(QNB) binding from muscarinic receptors of rat cerebral cortex; 6200-9000. Type of experiment: tissue-based.
The target is the same in experiment [26]. Nature of the experiment: Displacement of [3H]- oxotremorine-M (OXO-M) binding from muscarinic receptors of rat cerebral cortex; 83-128. The class given is tissue-based.
Experiment [27] shares this target. In words: Displacement of [3H]quinuclidinyl benzilate(QNB) binding from muscarinic receptors of rat cerebral cortex; 3400-10000. The class given is tissue-based.
Experiment [28] shares this target. In words: Displacement of [3H]- oxotremorine-M (OXO-M) binding from muscarinic receptors of rat cerebral cortex; 65-110. Type of experiment: tissue-based.
The target is the same in experiment [29]. In words: Displacement of [3H]- oxotremorine-M (OXO-M) binding from muscarinic receptors of rat cerebral cortex; 10-30. The class given is tissue-based.
Experiment [30] has the same target. Nature of the experiment: Displacement of [3H]quinuclidinyl benzilate(QNB) binding from muscarinic receptors of rat cerebral cortex; 2000-4800. The class given is tissue-based.

Regarding `CO/N=C(\C)C12CCCN(CC1)C2` (stereo not drawn), the Ratio in experiment [1] was determined as 74. The IC50 (as a rule, the concentration needed to halve the response being measured) in experiment [2] is given as 3400 nM; in experiment [3] it was 46 nM.
As for `CO/N=C(\C)C12CCN(CC1)C2`, the Ratio in [1] was determined as 255. In addition, the half-maximal inhibitory concentration (IC50) in experiment [4] is 14000 nM; in [5] it was 55 nM.
For `CO/N=C/C12CCCN(CC1)C2` (stereo not drawn), the Ratio in experiment [1] amounted to 87. Besides, the IC50 in [6] came to 60 nM; in experiment [7], 5200 nM.
For the compound `COC(=O)C1CN2CCC1CC2` (stereo not drawn), the Ratio in [1] amounted to 48.
`C#CCO/N=C/[C@H]1CN2CC[C@H]1C2`: the values for the Ratio in experiment [1] and in experiment [9] were 78 and 10.6, respectively. For the same compound, in the experiment with Rattus norvegicus [8], the ED50 (in general, the dose at which the effect has come halfway, by size or by number of responders) is 0.17 mg/kg. For the same compound, the “ED Arec” value with Rattus norvegicus [10] is 0.016 mg/kg. The IC50 in experiment [11] amounted to 1950 nM; in experiment [12] it was 25 nM.
On to `CCCO/N=C/[C@H]1CN2CC[C@H]1C2`, for which, in [1], the Ratio is 10. The results for the IC50 in experiment [13] and in [14] were 2900 nM and 278 nM, respectively.
Take `CO/N=C/C12CCN(CC1)C2`: the Ratio in [1] was 321. For the same compound, the figures for the IC50 in experiment [15] and in [16] were 118 nM and 38000 nM, respectively.
In the case of `CCCCO/N=C/[C@H]1CN2CC[C@H]1C2`, the Ratio in [1] amounted to 14. In addition, the IC50 in experiment [17] stood at 252 nM; in [18], 3600 nM.
With `CCO/N=C/[C@H]1CN2CC[C@H]1C2`, the Ratio in experiment [1] is 23; in experiment [9], greater than 7.8. The ED50 in the experiment with Rattus norvegicus [8] is greater than 1.8 mg/kg. For the same compound, the IC50 in experiment [19] was determined as 3700 nM; in experiment [20] it was 160 nM. Further, the “ED Arec” value in the experiment on Rattus norvegicus [10] was 0.23 mg/kg.
In the case of `CC/C(=N\OC)[C@H]1CN2CC[C@H]1C2`, the Ratio in experiment [1] came out at 25. The IC50 was 5200 nM in [21] and 208 nM in experiment [22].
Consider `CO/N=C(\C)C1CN2CCC1CC2` (stereo not drawn), for which the IC50 in experiment [23] turned out to be 2000 nM; in experiment [24], 69 nM. The Ratio in experiment [1] came to 29.
As to `CO/N=C(\C)[C@H]1CN2CC[C@H]1C2`, the Ratio in experiment [1] came to 76. The IC50 is 7500 nM in [25] and 99 nM in experiment [26].
As to `CO/N=C/C1CN2CCC1CC2` (stereo not drawn), the Ratio in experiment [1] stood at 61. The IC50 in experiment [27] is recorded as 5800 nM; in [28] it was 95 nM.
As to `CO/N=C/[C@H]1CN2CC[C@H]1C2`, in the experiment on Rattus norvegicus [8], the ED50 was 0.0031 mg/kg. For the same compound, the IC50 in experiment [29] was determined as 15 nM; in experiment [30] it was 3100 nM. Besides, the Ratio in experiment [9] turned out to be 1.5. In addition, the “ED Arec” value in the experiment on Rattus norvegicus [10] amounted to 0.0021 mg/kg.
